Test results taken from ChEMBL document CHEMBL1201862, “PubChem BioAssay data set” (2004).
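Cultured in 96-well plates, cells were exposed to test compound for 48 hours across five concentrations. At the GI50, growth is halved.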 Active and inactive are the calls of the source. Rule as the data show it: active = GI50 up to about 1.1 µM and inactive = higher. Where a SMILES comes first, the peptide text is derived from it. [ ]: non-standard residue; d: D form. The star is where a group is joined. ξ: configuration not given here. X38 = O=C(OCc1ccccc1)[C@@H]1CCC[C@H]1N*; Fmoc = O=C(OCC1c2ccccc2-c2ccccc21)*; ξW = NC(Cc1c[nH]c2ccccc12)C(=O)O; ξF = NC(Cc1ccccc1)C(=O)O; Boc = CC(C)(C)OC(=O)*; ξK = NCCCCC(N)C(=O)O; ξT = CC(O)C(N)C(=O)O; tBu = CC(C)(C)*

How the values were obtained:
Test in all cases: DTP human tumour cell line panel, 48 h
KM12 = test system: KM12
A498 = test system: A498
TK-10 = test system: TK-10
HOP-92 = test system: HOP-92
CCRF-CEM = test system: CCRF-CEM
SNB-75 = test system: SNB-75
OVCAR-4 = test system: OVCAR-4
MCF7 = test system: MCF7
UACC-62 = test system: UACC-62
IGROV-1 = test system: IGROV-1
A549 = test system: A549
SK-MEL-28 = test system: SK-MEL-28
MDA-MB-435 = test system: MDA-MB-435
PC-3 = test system: PC-3
OVCAR-3 = test system: OVCAR-3
MDA-N = test system: MDA-N
NCI/ADR-RES = test system: NCI/ADR-RES
SK-MEL-5 = test system: SK-MEL-5
UO-31 = test system: UO-31

Row | Compound | GI50 (KM12) | GI50 (A498) | GI50 (TK-10) | GI50 (HOP-92) | GI50 (CCRF-CEM) | GI50 (SNB-75) | GI50 (OVCAR-4) | GI50 (MCF7) | GI50 (UACC-62) | GI50 (IGROV-1) | GI50 (A549) | GI50 (SK-MEL-28) | GI50 (MDA-MB-435) | GI50 (PC-3) | GI50 (OVCAR-3) | GI50 (MDA-N) | GI50 (NCI/ADR-RES) | GI50 (SK-MEL-5) | GI50 (UO-31)
1 | CC(OC(C)(C)C)C(NC(=O)C(CCCCNC(=O)OC(C)(C)C)NC(=O)C(Cc1c[nH]c2ccccc12)NC(=O)C(Cc1ccccc1)NC(=O)OCC1c2ccccc2-c2ccccc21)C(=O)NC(Cc1ccccc1)C(=O)N[C@@H]1CCC[C@H]1C(=O)OCc1ccccc1 (stereo partly specified) (Fmoc-[ξF][ξW][ξK](Boc)[ξT](tBu)[ξF]-X38) | > 100 µM (inactive) | > 10 µM (inactive) | > 100 µM (inactive) | > 100 µM (inactive) | > 100 µM (inactive) | > 100 µM (inactive) | > 100 µM (inactive) | > 100 µM (inactive) | > 100 µM (inactive) | > 100 µM (inactive) | > 100 µM (inactive) | > 100 µM (inactive) | > 100 µM (inactive) | > 100 µM (inactive) | > 100 µM (inactive) | > 100 µM (inactive) | > 100 µM (inactive) | 14.6 µM (inactive) | > 100 µM (inactive)
2 | CN1CCC23c4c5ccc(O)c4OC2c2[nH]c4ccccc4c2CC3(O)C1C5 (stereo unspecified) | 51.2 µM (inactive) | 18.8 µM (inactive) | 18.9 µM (inactive) | 16.3 µM (inactive) | 22 µM (inactive) | 36.7 µM (inactive) | 38.5 µM (inactive) | 36.3 µM (inactive) | 23.4 µM (inactive) | 66.4 µM (inactive) | 53 µM (inactive) | 13.7 µM (inactive) | 18.2 µM (inactive) | 41.6 µM (inactive) | 42.6 µM (inactive) | 20 µM (inactive) | > 100 µM (inactive) | 13.5 µM (inactive) | 15.2 µM (inactive)
3 | O=C(O)c1cc(C(=O)O)nc(C(=O)O)c1 | > 100 µM (inactive) | > 100 µM (inactive) | > 100 µM (inactive) | > 100 µM (inactive) | 42.7 µM (inactive) | > 100 µM (inactive) | > 100 µM (inactive) | > 100 µM (inactive) | > 100 µM (inactive) | > 100 µM (inactive) | > 100 µM (inactive) | > 100 µM (inactive) | > 100 µM (inactive) | > 100 µM (inactive) | > 100 µM (inactive) | > 100 µM (inactive) | > 100 µM (inactive) | > 100 µM (inactive) | > 100 µM (inactive)
4 | Cc1c(C=C(C#N)C#N)c(=O)n(C)c(=O)n1C | > 100 µM (inactive) | > 100 µM (inactive) | > 100 µM (inactive) | > 100 µM (inactive) | 19.6 µM (inactive) | > 100 µM (inactive) | > 100 µM (inactive) | > 100 µM (inactive) | > 100 µM (inactive) | > 100 µM (inactive) | > 100 µM (inactive) | > 100 µM (inactive) | > 100 µM (inactive) | > 100 µM (inactive) | > 100 µM (inactive) | > 100 µM (inactive) | > 100 µM (inactive) | > 100 µM (inactive) | > 100 µM (inactive)
5 | COC(=O)c1ccccc1C1CN=NC12Cc1c(C)ccc(C)c1C2=O (stereo unspecified) | > 100 µM (inactive) | > 100 µM (inactive) | > 100 µM (inactive) | 23.3 µM (inactive) | > 100 µM (inactive) | > 100 µM (inactive) | > 100 µM (inactive) | > 100 µM (inactive) | > 100 µM (inactive) | > 100 µM (inactive) | > 100 µM (inactive) | > 100 µM (inactive) | > 100 µM (inactive) | > 100 µM (inactive) | > 100 µM (inactive) | > 100 µM (inactive) | > 100 µM (inactive) | > 100 µM (inactive) | > 100 µM (inactive)
6 | COC(=O)c1ccccc1C1CN=NC12Cc1c(ccc(C)c1C)C2=O (stereo unspecified) | > 100 µM (inactive) | > 100 µM (inactive) | > 100 µM (inactive) | 21.3 µM (inactive) | > 100 µM (inactive) | 22 µM (inactive) | 42.3 µM (inactive) | > 100 µM (inactive) | > 100 µM (inactive) | > 100 µM (inactive) | > 100 µM (inactive) | > 100 µM (inactive) | > 100 µM (inactive) | 90.6 µM (inactive) | 45.7 µM (inactive) | > 100 µM (inactive) | > 100 µM (inactive) | > 100 µM (inactive) | > 100 µM (inactive)
7 | Clc1ccc(CCNCCNC2(c3cc4ccccc4s3)CCCCC2)cc1Cl | 1.6 µM (inactive) | 1.78 µM (inactive) | 1.7 µM (inactive) | 1.68 µM (inactive) | 2.54 µM (inactive) | 1.96 µM (inactive) | 1.64 µM (inactive) | 1.71 µM (inactive) | 1.74 µM (inactive) | 1.81 µM (inactive) | 1.81 µM (inactive) | 1.79 µM (inactive) | 2.02 µM (inactive) | 1.73 µM (inactive) | 1.45 µM (inactive) | 1.84 µM (inactive) | 1.8 µM (inactive) | 1.72 µM (inactive) | 1.85 µM (inactive)
8 | C=CCn1c(=O)c2ccccc2[n+]2c(-c3cccc([N+](=O)[O-])c3)csc12 | 45.4 µM (inactive) | 31.6 µM (inactive) | 38.4 µM (inactive) | 56.2 µM (inactive) | 27.5 µM (inactive) | 17.5 µM (inactive) | 64.4 µM (inactive) | 42.9 µM (inactive) | 31.6 µM (inactive) | 50.5 µM (inactive) | 42.2 µM (inactive) | 66.7 µM (inactive) | 40.8 µM (inactive) | 30.9 µM (inactive) | 33.9 µM (inactive) | 66.2 µM (inactive) | 17.1 µM (inactive) | 11.4 µM (inactive) | 28.6 µM (inactive)
9 | COc1cc(C2c3cc4c(cc3OC(NN)C2C)OCO4)cc(OC)c1OC (stereo unspecified) | 0.466 µM (active) | 0.257 µM (active) | 28.3 µM (inactive) | 2.04 µM (inactive) | 0.405 µM (active) | 0.289 µM (active) | 23.6 µM (inactive) | 0.443 µM (active) | 0.495 µM (active) | 1.46 µM (inactive) | 1.58 µM (inactive) | 50.8 µM (inactive) | 0.157 µM (active) | 0.556 µM (active) | 0.265 µM (active) | 0.123 µM (active) | 1.06 µM (active) | 0.478 µM (active) | 6.85 µM (inactive)
10 | CN(C)CCCc1c[nH]c2ccccc12 | > 100 µM (inactive) | > 100 µM (inactive) | > 100 µM (inactive) | > 100 µM (inactive) | > 100 µM (inactive) | > 100 µM (inactive) | > 100 µM (inactive) | > 100 µM (inactive) | > 100 µM (inactive) | > 100 µM (inactive) | > 100 µM (inactive) | > 100 µM (inactive) | > 100 µM (inactive) | > 100 µM (inactive) | > 100 µM (inactive) | > 100 µM (inactive) | > 100 µM (inactive) | > 100 µM (inactive) | > 100 µM (inactive)
11 | Cc1n(Cc2ccccc2)c2c([n+]1C)C(=O)c1ccccc1C2=O | 0.0605 µM (active) | 0.129 µM (active) | 0.265 µM (active) | 0.369 µM (active) | 0.456 µM (active) | 0.0736 µM (active) | 0.0401 µM (active) | 0.0158 µM (active) | 0.17 µM (active) | 0.0301 µM (active) | 0.0478 µM (active) | 0.0948 µM (active) | 0.183 µM (active) | 0.0838 µM (active) | < 0.0136 µM (active) | 0.173 µM (active) | 21.1 µM (inactive) | 0.0211 µM (active) | 4.57 µM (inactive)
12 | CC(C)C1OC(/C=C/c2ccccc2)OCC1(C)C (stereo unspecified) | 31 µM (inactive) | 24 µM (inactive) | 35.1 µM (inactive) | 17.9 µM (inactive) | 20.9 µM (inactive) | 26.9 µM (inactive) | 33.6 µM (inactive) | 31.8 µM (inactive) | 45.7 µM (inactive) | 40.1 µM (inactive) | 29.9 µM (inactive) | 53.3 µM (inactive) | 33.7 µM (inactive) | 37.1 µM (inactive) | 20.4 µM (inactive) | 36.3 µM (inactive) | 41.6 µM (inactive) | 17.7 µM (inactive) | 34.8 µM (inactive)
13 | Cc1cc(S(=O)(=O)Nc2nnc3cc(C(F)(F)F)cc(C)n23)c(S)cc1Cl | 45.6 µM (inactive) | 18.9 µM (inactive) | > 100 µM (inactive) | > 76.9 µM (inactive) | > 100 µM (inactive) | > 71.1 µM (inactive) | > 100 µM (inactive) | > 31.6 µM (inactive) | 56.4 µM (inactive) | > 100 µM (inactive) | 21.3 µM (inactive) | > 100 µM (inactive) | > 65.8 µM (inactive) | > 95.3 µM (inactive) | 64.1 µM (inactive) | > 100 µM (inactive) | 45.5 µM (inactive) | 64.4 µM (inactive) | 39.1 µM (inactive)
14 | O=C(N/N=C/c1c(-c2ccccc2)no[n+]1[O-])N1CCOCC1 | > 100 µM (inactive) | > 100 µM (inactive) | > 100 µM (inactive) | > 100 µM (inactive) | > 100 µM (inactive) | > 100 µM (inactive) | > 100 µM (inactive) | > 100 µM (inactive) | > 100 µM (inactive) | > 100 µM (inactive) | > 100 µM (inactive) | > 100 µM (inactive) | > 100 µM (inactive) | > 100 µM (inactive) | > 100 µM (inactive) | > 100 µM (inactive) | > 100 µM (inactive) | > 100 µM (inactive) | > 100 µM (inactive)
